In US20170305922A1, “CARM1 INHIBITORS AND USES THEREOF” (Epizyme, Inc., priority 2014, published 2017) one finds IC50 data, which are given here for 19 compounds.

Molecules are shown by their SMILES.

Experiment [1] deals with T1, Human CARM1 (PRMT4) (Homo sapiens, UniProt Q86X55).
T1 construct: Flag-CARM1-His was eluted with 200 ug/ml FLAG peptide in buffer A; made in house; host or cells: HEK 293F cells infected with recombinant baculovirus (pFastBacMam)
T1 sequence (Q86X55 1-585 isoform Q86X55-1): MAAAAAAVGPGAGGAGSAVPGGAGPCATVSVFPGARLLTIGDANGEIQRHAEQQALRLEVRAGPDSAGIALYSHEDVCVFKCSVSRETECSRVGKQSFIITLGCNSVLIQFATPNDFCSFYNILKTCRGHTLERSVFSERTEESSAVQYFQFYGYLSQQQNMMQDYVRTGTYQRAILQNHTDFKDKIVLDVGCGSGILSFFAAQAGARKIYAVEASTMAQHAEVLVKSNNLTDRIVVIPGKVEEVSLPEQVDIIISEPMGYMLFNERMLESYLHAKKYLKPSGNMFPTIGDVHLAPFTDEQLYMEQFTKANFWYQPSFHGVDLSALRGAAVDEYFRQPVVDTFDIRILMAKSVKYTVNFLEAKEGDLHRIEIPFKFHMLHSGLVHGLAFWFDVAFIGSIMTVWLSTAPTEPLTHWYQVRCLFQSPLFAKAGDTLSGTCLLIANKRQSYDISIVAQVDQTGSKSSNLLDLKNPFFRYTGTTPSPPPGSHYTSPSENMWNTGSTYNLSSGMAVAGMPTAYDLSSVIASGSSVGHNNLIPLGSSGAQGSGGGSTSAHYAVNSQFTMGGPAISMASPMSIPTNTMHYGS
The experiment can be described thus: CARM1 enzyme assay on peptide substrates (3H-SAM Flashplate). The note with it: Biochemical assay; CARM1 0.25 nM, 3H-SAM 30 nM, peptide 250 nM; read-out: Biochem IC50.

Experiment [2] deals with asymmetric di-methyl PABP1 in RKO cells. In words: RKO methylation assay: In Cell Western (ICW) for asymmetric di-methyl PABP1 (PABP1me2a). The note with it: Homo sapiens, RKO, 48 h, Cellular-based (PABP1me2a) ICW (In Cell Western) assay. In short, it runs like this: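 In-cell western on compound-exposed RKO cells (48 hours): asymmetric di-methyl PABP1 detected by antibody at 800 nm, DNA content by DRAQ5 at 700 nm. Percent inhibition from signal ratios against DMSO (minimum) and 20 μM reference compound (maximum) wells; IC50 curves fitted from triplicates.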

As to `CNC[C@@H](O)COc1ccc(Cl)c(-c2nc(-c3c(C)noc3C)c(C)c(N3Cc4cnn(CC(=O)N(C)C)c4C3)n2)c1` [Example 109], the IC50 (in general, the concentration needed to halve the response being measured) in experiment [1] was determined as 6.4 nM; in experiment [2], 2840 nM.
The matching figures for `CNC[C@@H](O)COc1ccc(Cl)c(-c2nc(-c3c(C)noc3C)c(C)c(N3Cc4cnn(CCOC)c4C3)n2)c1` [Example 110]: 4.8 nM and 52 nM.
For `CNC[C@@H](O)COc1ccc(Cl)c(-c2nc(-c3c(C)noc3C)c(C)c(N3CC4(CC(S(C)(=O)=O)C4)C3)n2)c1` [Example 111] the same measures were 11.2 nM and 822 nM.
On to `CNC[C@@H](O)COc1ccc(Cl)c(-c2nc(-c3c(C)noc3C)c(C)c(N3Cc4cn(CCOC)nc4C3)n2)c1` [Example 112], for which the IC50 in experiment [1] was 7.2 nM; in experiment [2], 66 nM.
For `CNC[C@@H](O)COc1ccc(Cl)c(-c2nc(-c3c(C)noc3C)c(C)c(N3Cc4cn(CC(=O)N(C)C)nc4C3)n2)c1` [Example 113] the same measures were 8.8 nM and 1150 nM.
The matching figures for `CNC[C@@H](O)COc1ccc(Cl)c(-c2nc(-c3c(C)noc3C)c(C)c(N3Cc4cn(C(CO)CO)nc4C3)n2)c1` [Example 114]: 7.8 nM and 5850 nM.
As for `CNC[C@@H](O)COc1ccc(Cl)c(-c2nc(-c3c(C)noc3C)c(C)c(N3Cc4cnn(C(CO)CO)c4C3)n2)c1` [Example 115], the values for the IC50 in experiment [1] and in experiment [2] were 9.9 nM and 9130 nM, respectively.
The matching figures for `CNC[C@@H](O)COc1ccc(Cl)c(-c2nc(-c3c(C)noc3C)c(C)c(N3CC4(CCN(CC(F)(F)F)C(=O)O4)C3)n2)c1` [Example 116]: 13.8 nM and 339 nM.
For `CNC[C@@H](O)COc1ccc(Cl)c(-c2nc(-c3c(C)noc3C)c(C)c(N3Cc4cnc(SC)nc4C3)n2)c1` [Example 117] the same measures were 3.9 nM and 31 nM.
The matching figures for `CNC[C@@H](O)COc1ccc(Cl)c(-c2nc(-c3cnn(CC(F)(F)F)c3)c(C)c(-c3c(C)noc3C)n2)c1` [Example 118]: 9 nM and 428 nM.
Regarding `CNC[C@@H](O)COc1ccc(Cl)c(-c2nc(-c3cnn(CC(F)F)c3)c(C)c(-c3c(C)noc3C)n2)c1` [Example 119], the IC50 in experiment [1] was determined as 7.6 nM; in experiment [2], 340 nM.
The matching figures for `CNC[C@@H](O)COc1ccc(Cl)c(-c2nc(-c3c(C)noc3C)c(C)c(N3C[C@@H]4C[C@H]3CN4CC(F)(F)F)n2)c1` [Example 120]: 8.8 nM and 389 nM.
The matching figures for `CNC[C@@H](O)COc1ccc(Cl)c(-c2nc(CCC3CN(C(=O)OC)C3)c(C)c(-c3c(C)noc3C)n2)c1` [Example 121]: 13.4 nM and 257 nM.
For `CNC[C@@H](O)COc1ccc(Cl)c(-c2nc(-c3c(C)noc3C)c(C)c(-n3ncc4c3CN(C(=O)OC)C4)n2)c1` [Example 122] the same measures were 13.7 nM and 1810 nM.
As for `CNC[C@@H](O)COc1ccc(Cl)c(-c2nc(-c3c(C)noc3C)c(C)c(N3Cc4cccnc4C3C)n2)c1` (some centres unmarked) [Example 123], the IC50 in experiment [1] turned out to be 3.4 nM; in experiment [2], 163 nM.
For `CNC[C@@H](O)COc1ccc(Cl)c(-c2nc(-c3c(C)noc3C)c(C)c(N3Cc4ccncc4C3C)n2)c1` (some centres unmarked) [Example 124] the same measures were 5.2 nM and 175 nM.
The matching figures for `CNC[C@@H](O)COc1ccc(Cl)c(-c2nc(-c3c(C)noc3C)c(C)c(N3Cc4cnn(C5COC5)c4C3)n2)c1` [Example 125]: 6.5 nM and 150 nM.
For `CNC[C@@H](O)COc1ccc(Cl)c(-c2nc(-c3c(C)noc3C)c(C)c(N3Cc4cn(C5COC5)nc4C3)n2)c1` [Example 126] the same measures were 6.2 nM and 157 nM.
Regarding `CNC[C@@H](O)COc1ccc(Cl)c(-c2nc(-c3c(C)noc3C)c(C)c(N3Cc4cnc(OCC(F)F)nc4C3)n2)c1` [Example 127], the IC50 in experiment [1] turned out to be 7.8 nM; in experiment [2] it was 32 nM.
